“And” between values parts separate entries of the source, which are not always exact repeats. Equal entries are not always repeated.
How the values were obtained:
[1] = molecular target: EGFR (Human), P00533 [T790M/L858R]; conditions: baf3
EGFR (human) = EGFR (human) (UniProt P00533)
[2] = molecular target: EGFR (Human), P00533 [T790M/L858R]
[3] = molecular target: EGFR (human), P00533 [L858R]
[4] = molecular target: EGFR (Human), P00533 [Assessment of EGFR-Del T790M Dependent Cell Proliferation in BaF3 Cells]
Chain of EGFR (Human), P00533 [Assessment of EGFR-Del T790M Dependent Cell Proliferation in BaF3 Cells] (P00533 whole entry, looked up, stated change not applied): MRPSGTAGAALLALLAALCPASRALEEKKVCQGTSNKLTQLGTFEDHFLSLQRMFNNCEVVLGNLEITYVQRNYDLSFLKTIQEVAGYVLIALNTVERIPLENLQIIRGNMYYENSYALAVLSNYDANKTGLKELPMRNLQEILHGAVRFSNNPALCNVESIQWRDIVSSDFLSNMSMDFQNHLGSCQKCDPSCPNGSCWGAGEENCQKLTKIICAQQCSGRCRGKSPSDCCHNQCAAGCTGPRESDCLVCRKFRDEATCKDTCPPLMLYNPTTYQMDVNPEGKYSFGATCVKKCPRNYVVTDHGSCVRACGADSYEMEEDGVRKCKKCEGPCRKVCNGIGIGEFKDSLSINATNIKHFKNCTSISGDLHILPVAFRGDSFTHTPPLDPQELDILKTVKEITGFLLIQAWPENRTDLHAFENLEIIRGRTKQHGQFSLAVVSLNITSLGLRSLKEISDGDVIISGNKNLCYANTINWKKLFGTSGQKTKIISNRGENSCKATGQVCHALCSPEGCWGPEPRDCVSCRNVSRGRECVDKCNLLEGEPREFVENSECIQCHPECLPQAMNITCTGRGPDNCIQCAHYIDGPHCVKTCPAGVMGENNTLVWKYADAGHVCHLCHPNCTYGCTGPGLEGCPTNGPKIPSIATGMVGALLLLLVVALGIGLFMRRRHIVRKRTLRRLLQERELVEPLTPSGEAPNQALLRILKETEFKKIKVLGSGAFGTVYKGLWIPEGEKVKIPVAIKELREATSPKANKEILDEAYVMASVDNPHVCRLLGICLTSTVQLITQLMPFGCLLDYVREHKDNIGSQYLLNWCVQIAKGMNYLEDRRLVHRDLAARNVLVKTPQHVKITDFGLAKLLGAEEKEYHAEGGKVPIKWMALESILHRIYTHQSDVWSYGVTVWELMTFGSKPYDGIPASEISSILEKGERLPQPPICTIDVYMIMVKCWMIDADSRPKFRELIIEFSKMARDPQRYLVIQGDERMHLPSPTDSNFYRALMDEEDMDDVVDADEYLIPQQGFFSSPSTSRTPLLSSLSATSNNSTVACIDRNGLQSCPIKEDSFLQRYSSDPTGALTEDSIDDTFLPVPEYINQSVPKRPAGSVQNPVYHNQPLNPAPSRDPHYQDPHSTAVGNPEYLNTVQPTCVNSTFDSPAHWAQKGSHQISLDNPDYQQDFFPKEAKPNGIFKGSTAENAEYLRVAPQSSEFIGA

Chain of EGFR (Human), P00533 [T790M/L858R] (P00533 whole entry T790M/L858R, looked up): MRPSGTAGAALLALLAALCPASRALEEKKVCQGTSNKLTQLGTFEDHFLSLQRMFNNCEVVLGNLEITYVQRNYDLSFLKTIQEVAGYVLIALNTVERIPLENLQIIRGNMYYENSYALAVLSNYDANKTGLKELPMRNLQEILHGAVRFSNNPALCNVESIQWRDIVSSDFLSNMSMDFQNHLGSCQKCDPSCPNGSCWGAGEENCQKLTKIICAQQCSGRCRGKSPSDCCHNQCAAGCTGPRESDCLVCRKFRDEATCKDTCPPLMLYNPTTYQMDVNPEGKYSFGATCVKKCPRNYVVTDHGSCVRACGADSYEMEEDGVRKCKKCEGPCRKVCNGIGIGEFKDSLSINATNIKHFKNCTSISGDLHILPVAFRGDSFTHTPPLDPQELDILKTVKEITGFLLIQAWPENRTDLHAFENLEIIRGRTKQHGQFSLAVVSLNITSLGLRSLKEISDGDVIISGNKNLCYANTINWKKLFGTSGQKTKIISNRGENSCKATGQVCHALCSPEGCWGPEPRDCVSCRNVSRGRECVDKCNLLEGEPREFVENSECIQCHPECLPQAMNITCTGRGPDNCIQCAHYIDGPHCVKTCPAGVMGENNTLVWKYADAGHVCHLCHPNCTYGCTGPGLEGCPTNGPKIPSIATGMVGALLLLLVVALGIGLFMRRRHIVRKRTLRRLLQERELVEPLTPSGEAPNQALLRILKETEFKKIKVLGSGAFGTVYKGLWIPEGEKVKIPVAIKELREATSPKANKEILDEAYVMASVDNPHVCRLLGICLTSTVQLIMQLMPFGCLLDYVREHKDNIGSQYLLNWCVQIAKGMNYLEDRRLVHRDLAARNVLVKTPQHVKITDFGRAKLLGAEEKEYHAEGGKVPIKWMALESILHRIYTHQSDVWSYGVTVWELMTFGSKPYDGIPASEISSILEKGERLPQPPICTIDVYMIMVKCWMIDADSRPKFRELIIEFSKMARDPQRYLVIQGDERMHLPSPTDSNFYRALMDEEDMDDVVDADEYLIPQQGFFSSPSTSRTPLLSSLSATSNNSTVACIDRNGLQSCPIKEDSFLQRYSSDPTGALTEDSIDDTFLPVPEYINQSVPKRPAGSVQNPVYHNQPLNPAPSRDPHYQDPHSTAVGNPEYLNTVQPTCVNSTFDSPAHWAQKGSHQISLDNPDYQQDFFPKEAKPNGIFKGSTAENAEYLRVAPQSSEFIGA
Chain of EGFR (human) (P00533 whole entry, looked up): as the sequence (P00533 whole entry, looked up, stated change not applied) above
Chain of EGFR (human), P00533 [L858R] (P00533 whole entry L858R, looked up): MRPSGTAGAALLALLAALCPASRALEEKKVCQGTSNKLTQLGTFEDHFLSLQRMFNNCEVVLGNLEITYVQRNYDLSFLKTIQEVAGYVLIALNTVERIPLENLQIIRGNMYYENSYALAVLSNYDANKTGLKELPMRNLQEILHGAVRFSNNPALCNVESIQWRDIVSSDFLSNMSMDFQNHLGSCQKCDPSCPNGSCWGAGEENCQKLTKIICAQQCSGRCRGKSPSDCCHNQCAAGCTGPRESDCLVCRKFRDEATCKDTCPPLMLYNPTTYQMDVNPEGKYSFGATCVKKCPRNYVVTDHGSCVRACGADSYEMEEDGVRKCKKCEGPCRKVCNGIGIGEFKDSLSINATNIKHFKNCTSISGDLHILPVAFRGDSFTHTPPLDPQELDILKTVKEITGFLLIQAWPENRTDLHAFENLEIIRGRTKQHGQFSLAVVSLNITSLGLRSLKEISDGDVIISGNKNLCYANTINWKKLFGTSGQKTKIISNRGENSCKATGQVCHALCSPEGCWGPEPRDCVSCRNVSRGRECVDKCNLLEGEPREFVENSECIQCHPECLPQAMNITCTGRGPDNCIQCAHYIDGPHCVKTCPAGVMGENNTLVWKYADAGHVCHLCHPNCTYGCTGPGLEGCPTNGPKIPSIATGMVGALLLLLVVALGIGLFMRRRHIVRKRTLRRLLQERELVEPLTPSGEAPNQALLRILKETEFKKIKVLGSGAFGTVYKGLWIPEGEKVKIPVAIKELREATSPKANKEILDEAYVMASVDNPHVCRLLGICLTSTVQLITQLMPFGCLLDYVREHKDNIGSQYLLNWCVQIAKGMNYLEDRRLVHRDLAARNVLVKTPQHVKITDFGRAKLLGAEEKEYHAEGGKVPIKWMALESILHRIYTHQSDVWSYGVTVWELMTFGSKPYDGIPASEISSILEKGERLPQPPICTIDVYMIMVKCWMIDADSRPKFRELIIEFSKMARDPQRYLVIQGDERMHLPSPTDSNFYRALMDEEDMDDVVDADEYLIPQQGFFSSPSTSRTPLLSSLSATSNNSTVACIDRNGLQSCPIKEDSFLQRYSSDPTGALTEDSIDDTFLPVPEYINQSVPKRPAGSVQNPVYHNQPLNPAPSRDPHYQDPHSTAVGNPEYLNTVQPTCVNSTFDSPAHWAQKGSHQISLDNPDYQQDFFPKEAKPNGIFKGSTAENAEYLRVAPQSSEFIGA

Compound | IC50 [1] | IC50 (EGFR (human)) [nM] | IC50 [2] [nM] | IC50 [3] [nM] | IC50 [4]
C=CC(=O)Nc1ccc(OC)c(Nc2ncc(OC)c(Nc3ccccc3P(C)(C)=O)n2)c1 | 50 to 100 nM | 50 to 100 | < 50 | < 50 | < 50 nM
COc1ccc(NC(=O)/C=C\C(=O)NCCN(C)C)cc1Nc1ncc(Cl)c(Nc2ccccc2P(C)(C)=O)n1 |  |  | < 50 | < 50 | 
COc1cc(N2CCOCC2)c(NC(=O)C#CCCN2CCN(C)CC2)cc1Nc1ncc(Cl)c(Nc2ccccc2P(C)(C)=O)n1 | < 50 nM | < 50 | < 50 | < 50 | < 50 nM
C=C(Cl)C(=O)Nc1ccc(OC)c(Nc2ncc(Cl)c(Nc3ccccc3P(C)(C)=O)n2)c1 | 101 to 250 nM | < 50 | < 50 | < 50 | < 50 nM
C=CC(=O)Nc1cc(Nc2ncc(Cl)c(Nc3ccccc3P(C)(C)=O)n2)c(OC)cc1C#CC1(N(C)C)CC1 | 101 to 250 nM |  | < 50 | < 50 | 101 to 250 nM
C=CC(=O)Nc1ccc(OC)c(Nc2ncc(Cl)c(Nc3ccc(OCCOC)cc3P(C)(C)=O)n2)c1 | 50 to 100 nM | 50 to 100 | < 50 | < 50 | < 50 nM
C=CC(=O)Nc1cc(Nc2ncc(Cl)c(Nc3ccccc3P(C)(C)=O)n2)c(OC)cc1OCC1CCN(C)CC1 |  | 50 to 100 | < 50 | < 50 | 101 to 250 nM
COc1ccc(NC(=O)/C=C/Cl)cc1Nc1ncc(Cl)c(Nc2ccccc2P(C)(C)=O)n1 | < 50 nM | < 50 | < 50 | < 50 | < 50 nM
C=CC(=O)Nc1cc(Nc2ncc(Cl)c(Nc3ccccc3P(C)(C)=O)n2)c(OC)cc1N1CC[C@@H](N(C)C)C1 | < 50 nM | < 50 | < 50 | < 50 | < 50 nM
C=CC(=O)Nc1cc(Nc2ncc(Cl)c(Nc3ccccc3P(C)(C)=O)n2)c(OC)cc1C(=O)N1CCN(C)CC1 |  | 101 to 250 | < 50 | < 50 | 
COc1cc(C)c(NC(=O)CCl)cc1Nc1ncc(C)c(Nc2ccccc2P(C)(C)=O)n1 | < 50 nM | < 50 | < 50 | < 50 | < 50 nM
C=CC(=O)Nc1cc(Nc2ncc(Cl)c(Nc3ccccc3P(C)(C)=O)n2)c(C)cc1C#CCN(C)C | < 50 nM | < 50 | < 50 | < 50 | < 50 nM
C=CC(=O)Nc1cc(Nc2ncc(Cl)c(Nc3ccccc3P(C)(C)=O)n2)c(OC)cc1OC1CN(C)C1 | 101 to 250 nM |  |  |  | 50 to 100 nM
COc1ccc(NC(=O)/C=C\C(=O)N2CCN(C)CC2)cc1Nc1ncc(Cl)c(Nc2ccccc2P(C)(C)=O)n1 |  |  |  | 101 to 250 | 
C=C(CN1CCC(N2CCN(C)CC2)CC1)C(=O)Nc1ccc(OC)c(Nc2ncc(Cl)c(Nc3ccccc3P(C)(C)=O)n2)c1 | < 50 nM | < 50 | < 50 | < 50 | < 50 nM
C=CC(=O)Nc1cc(Nc2ncc(Cl)c(Nc3ccccc3P(C)(C)=O)n2)c(OC)cc1N1CCC(N)C1 (stereo not drawn) |  | < 50 | < 50 | < 50 | 
CC#CC(=O)Nc1cc(Nc2ncc(Cl)c(Nc3ccccc3P(C)(C)=O)n2)c(OC)cc1OCCN1CCCC1 | 101 to 250 nM |  | < 50 | < 50 | < 50 nM
C=CC(=O)Nc1ccc(OC)c(Nc2ncc(C#N)c(Nc3ccccc3P(C)(C)=O)n2)c1 |  | < 50 | < 50 | < 50 | 101 to 250 nM
C=CC(=O)Nc1cc(Cc2ncc(Cl)c(Nc3ccccc3P(C)(C)=O)n2)c(OC)cc1C#CCN1CCC(C)CC1 |  | < 50 | < 50 | < 50 | 
C=CC(=O)Nc1ccc(OC)c(Nc2ncc(Cl)c(Nc3ccccc3P(C)(C)=O)n2)c1 |  |  | < 50 | < 50 | 101 to 250 nM
COc1ccc(NC(=O)C2=CCCN(C)C2)cc1Nc1ncc(Cl)c(Nc2ccccc2P(C)(C)=O)n1 |  |  | < 50 | < 50 | 
C=C(F)C(=O)Nc1ccc(OC)c(Nc2ncc(Cl)c(Nc3ccccc3P(C)(C)=O)n2)c1 | 50 to 100 nM |  | 50 to 100 | < 50 | < 50 nM
C=CC(=O)Nc1cc(Nc2ncc(Cl)c(Nc3ccccc3P(C)(C)=O)n2)c(OC)cc1N1CCC(N2CCC(O)CC2)C1 (stereo not drawn) |  | < 50 | < 50 | < 50 | 101 to 250 nM
C=CC(=O)Nc1ccc(OC)c(Nc2cc(Nc3ccccc3P(C)(C)=O)ncn2)c1 |  | 50 to 100 | 101 to 250 | < 50 | 
C=CC(=O)Nc1cc(Nc2ncc(Cl)c(Nc3ccccc3P(C)(C)=O)n2)c(OC)cc1N1CCC(N2CCC(O)C2)C1 (stereo not drawn) |  | < 50 | < 50 | < 50 | 101 to 250 nM
C=CC(=O)Nc1cc(Nc2ncc(Cl)c(Nc3ccccc3P(C)(C)=O)n2)c(OC)cc1OCCN1CCN(C)CC1 |  | 101 to 250 | < 50 | < 50 | 
COc1ccc(NC(=O)CF)cc1Nc1ncc(Cl)c(Nc2ccccc2P(C)(C)=O)n1 |  |  | 101 to 250 | 50 to 100 | 

Compound | IC50 [1] | IC50 (EGFR (human)) [nM] | IC50 [2] [nM] | IC50 [3] [nM] | IC50 [4]
CC#CC(=O)Nc1cc(Nc2ncc(Cl)c(Nc3ccccc3P(C)(C)=O)n2)c(OC)cc1OC1COC1 | 50 to 100 nM |  | 50 to 100 | < 50 | < 50 nM
CNC(=O)/C=C\C(=O)Nc1ccc(OC)c(Nc2ncc(Cl)c(Nc3ccccc3P(C)(C)=O)n2)c1 | 101 to 250 nM |  | < 50 | < 50 | < 50 nM
COc1ccc(NC(=O)/C=C/CN2CCCC2)cc1Nc1ncc(Cl)c(Nc2ccccc2P(C)(C)=O)n1 |  |  | < 50 | < 50 | 50 to 100 nM
C=C(C(=O)Nc1ccc(OC)c(Nc2ncc(Cl)c(Nc3ccccc3P(C)(C)=O)n2)c1)C(F)(F)F |  | < 50 | < 50 | < 50 | 
C=C(CN1CCS(=O)(=O)CC1)C(=O)Nc1ccc(OC)c(Nc2ncc(Cl)c(Nc3ccccc3P(C)(C)=O)n2)c1 |  |  | < 50 | 50 to 100 | 
C=C(CN1CCNC(=O)C1)C(=O)Nc1ccc(OC)c(Nc2ncc(Cl)c(Nc3ccccc3P(C)(C)=O)n2)c1 |  | < 50 | < 50 | < 50 | 101 to 250 nM
C=CC(=O)Nc1cc(Nc2ncc(Cl)c(Nc3ccccc3P(C)(C)=O)n2)c(OC)cc1N1CCC(N2CCN(C)CC2)CC1 | 50 to 100 nM and < 50 nM | < 50 | < 50 |  | 50 to 100 nM and < 50 nM
COc1ccc(NC(=O)/C=C/C(=O)N(C)C)cc1Nc1ncc(Cl)c(Nc2ccccc2P(C)(C)=O)n1 |  |  | 101 to 250 | 50 to 100 | 
C=CC(=O)Nc1cc(Cc2ncc(Cl)c(Nc3ccccc3P(C)(C)=O)n2)c(OC)cc1C#CCN(C)C(C)(C)C |  | < 50 | < 50 | < 50 | 
C=CC(=O)Nc1cc(Nc2ncc(Cl)c(Nc3ccccc3P(C)(C)=O)n2)c(OC)cc1OCC1CCCN1C (stereo not drawn) | < 50 nM |  |  |  | < 50 nM
C=CC(=O)Nc1cc(Nc2ncc(Cl)c(Nc3ccccc3P(C)(C)=O)n2)c(OC)cc1OCC(CO)N(C)C (stereo not drawn) |  |  |  |  | 101 to 250 nM
COc1cc(P(C)(C)=O)ccc1Nc1ncc(Cl)c(Oc2cccc(NC(=O)C#CCN(C)C)c2)n1 |  | < 50 | < 50 | < 50 | 101 to 250 nM
CC#CC(=O)Nc1cc(Nc2ncc(Cl)c(Nc3ccccc3P(C)(C)=O)n2)c(OC)cc1OCC1CCOCC1 | 50 to 100 nM |  |  | 101 to 250 | < 50 nM
COc1ccc(NC(=O)/C=C/C2(N)CC2)cc1Nc1ncc(Cl)c(Nc2ccccc2P(C)(C)=O)n1 |  | 101 to 250 | < 50 | < 50 | 
COc1ccc(NC(=O)/C=C/C(=O)NCCN(C)C)cc1Nc1ncc(Cl)c(Nc2ccccc2P(C)(C)=O)n1 |  | < 50 | < 50 | < 50 | 
C=CC(=O)Nc1cc(Nc2ncc(Cl)c(Nc3ccccc3P(C)(C)=O)n2)c(OC)cc1CCN1CCN(C)CC1 |  | < 50 | < 50 | < 50 | 101 to 250 nM
COc1ccc(NC(=O)/C=C/C(=O)N2CCN(C)CC2)cc1Nc1ncc(Cl)c(Nc2ccccc2P(C)(C)=O)n1 |  | < 50 | < 50 | < 50 | 101 to 250 nM
C=CC(=O)N1CCc2cc(Nc3ncc(Cl)c(Nc4ccccc4P(C)(C)=O)n3)c(OC)cc21 |  |  |  |  | 101 to 250 nM
COc1ccc(NC(=O)/C=C\C(=O)O)cc1Nc1ncc(Cl)c(Nc2ccccc2P(C)(C)=O)n1 |  |  | 101 to 250 |  | 
C=CC(=O)Nc1cc(Nc2ncc(Cl)c(Nc3ccccc3P(C)(C)=O)n2)c(OC)cc1N1CCC(N2CCN(CCO)CC2)C1 (stereo not drawn) |  | < 50 | < 50 | < 50 | 
C=CC(=O)Nc1cc(Nc2ncc(Cl)c(Nc3ccccc3P(C)(C)=O)n2)c(OC)cc1C#CCN(CC)CC | < 50 nM |  | < 50 | < 50 | < 50 nM
COc1ccc(NC(=O)C#Cc2ccccc2)cc1Nc1ncc(Cl)c(Nc2ccccc2P(C)(C)=O)n1 | < 50 nM |  | < 50 | < 50 | < 50 nM
C=CC(=O)Nc1ccc(F)c(Nc2ncc(Cl)c(Nc3ccccc3P(C)(C)=O)n2)c1 | < 50 nM |  |  |  | < 50 nM
C=CC(=O)Nc1cc(Nc2ncc(Cl)c(Nc3ccccc3P(C)(C)=O)n2)c(OC)cc1OCC1CCOCC1 | 101 to 250 nM |  | 50 to 100 | < 50 | 50 to 100 nM
C=CC(=O)Nc1cc(Cc2ncc(Cl)c(Nc3ccccc3P(C)(C)=O)n2)c(OC)cc1C#CCN1CCC(N(C)C)C1 (stereo not drawn) |  | 50 to 100 | < 50 | < 50 | 
C=CC(=O)Nc1cc(Nc2ncc(Cl)c(Nc3ccccc3P(C)(C)=O)n2)c(OC)cc1OC1COC1 | 50 to 100 nM |  | < 50 | < 50 | < 50 nM
CNC(=O)/C=C/C(=O)Nc1ccc(OC)c(Nc2ncc(Cl)c(Nc3ccccc3P(C)(C)=O)n2)c1 | 101 to 250 nM |  | < 50 | < 50 | 50 to 100 nM
